Measured values reported in US11612587B2, “Composition for preventing or treating hair loss” (KYUNGPOOK NATIONAL UNIVERSITY INDUSTRY-ACADEMIC COOPERATION …, priority 2018, dated 2023).

Key:
human hair follicles [1] = assay: toxicity / growth of cultured human hair follicle tissue treated with the compound alone; format: cell-based; settings: 6 days culture
Description: (§1) Human hair tissue was provided from the hair transplant center of Kyungpook National University and used for the experiment by separating the hair follicles from the scalp tissue with the consent of the hair transplant patient (IRB project number: KNUH2014-02-023). After treatment of each compound, human hair tissue was prepared by incubating a 37° C. CO2 incubator for 6 days using Williams E media (Sigma, USA) containing 2 mM L-glutamine, 100 U/ml streptomycin, and 10 ng/ml hydrocortisone and the length of growth was measured using a microscope.
(§2) The data from the above experiments were expressed as mean±SEM. For statistical processing, the mean deviation of each group was measured using Student's t-test, and it was considered significant at p<0.005 and p<0.05.

human hair follicles [2] = assay: recovery of human hair follicle growth inhibition by 15d-PGJ2 in human hair follicle tissue culture; format: cell-based; settings: for hair follicle growth (hair follicle length when 15d-PGJ2 was treated alone as 100%): 6 days culture, FIG. 5
Description: as §1, §2

Which results are given for `O=C(O)CN1C(=O)C2(CC(=O)N(Cc3cc(Cl)ccc3F)C2=O)c2cc(Cl)ccc21` (stereo not shown) [Compound 1]?
toxicity in human hair follicle tissue (hair follicle growth vs untreated group) (human hair follicles [1]; compound alone at 0.1-10 nM, FIG. 4): no significant difference; hair follicle growth (hair follicle length when 15d-PGJ2 was treated alone as 100%) (human hair follicles [2]; 0.1 nM compound simultaneously with 15d-PGJ2 (10 μM)): 108%; hair follicle growth (hair follicle length when 15d-PGJ2 was treated alone as 100%) (human hair follicles [2]; 1 nM compound simultaneously with 15d-PGJ2 (10 μM)): 194%; hair follicle growth (hair follicle length when 15d-PGJ2 was treated alone as 100%) (human hair follicles [2]; 10 nM compound simultaneously with 15d-PGJ2 (10 μM)): 234%

Which “toxicity in human hair follicle tissue (hair follicle growth vs untreated group)” value (human hair follicles [1]; compound alone at 0.1 to 10 μM, FIG. 6) does the source give for `CC(C)(C)OC(=O)CN1C(=O)C2(CCNC2=O)c2cc(Cl)ccc21` (stereo not shown) [Compound 2] here?
The value was “no significant difference”.

And the “hair follicle growth inhibited by 15d-PGJ2” value (human hair follicles [2]; Compound 2 0.5 μM, 1 μM simultaneously with 15d-PGJ2 (10 μM), vs 15d-PGJ2 only, FIG. 7)?
Its value is “significantly increased”.

How did the “decrease of hair follicle growth” value (human hair follicles [1]; 15d-PGJ2 alone at 10 μM, FIG. 1) turn out when `CCCCC/C=C/C=C1/C(=O)C=C[C@@H]1C/C=C\CCCC(=O)O` [Compound 15d-PGJ2, 15-deoxy-Δ^12,14-prostaglandin J2, reference compound] was run?
The value was “⅓”.
